Legend:
[1] = test system: HCT-116 MTAP wild-type cells; experiment: Inhibitory activity on proliferation of HCT-116 MTAP wild-type cells (Cell-Titer Glo, 8 days); format: cell-based; conditions: Homo sapiens, HCT-116, 192 h, 8 days incubation
Procedure: Test 2: Compound's inhibitory activity on proliferation of HCT-116 MTAP wild-type cells.
(§1) Materials and Cells: HCT-116 MTAP wild-type cells obtained from Kyinno Bio (China); RPMI-1640 medium, fetal bovine serum, and penicillin-streptomycin purchased from Thermo Fisher Scientific (America); 384-well plates from PerkinElmer (America); Cell-Titer Glo assay kit from Promega (America).
Cell Culture: HCT116 MTAP wild-type cells were cultured in RPMI 1640 medium containing 10% fetal bovine serum and 1% penicillin-streptomycin at 37° C., 5% CO2. Only cells in logarithmic growth phase were used for experiments.
(§2) Cell Proliferation Inhibition Assay: The compound's inhibitory activity on HCT-116 MTAP wild-type cells was assessed using the Cell-Titer Glo assay kit. Adjusting cell concentration, 40 μL was seeded into a 384-well plate and cultured overnight at 37° C., 5% CO2. Each well received 40 nL of the compound, achieving concentrations from 0 to 10,000 nM (starting concentration 10,000 nM, 3-fold dilution, 10 points), with 0.1% DMSO. The cell plate was incubated for 8 days at 37° C., 5% CO2. Cell-Titer Glo reagent (40 μL) was added to measure cell viability.

[2] = test system: HCT-116 MTAP(−/−) deficient cells; experiment: Inhibitory activity on proliferation of HCT-116 MTAP(−/−) deficient cells (Cell-Titer Glo, 8 days); format: cell-based; conditions: Homo sapiens, HCT-116, 192 h, 8 days incubation
Procedure: as §1, with “Test 1: Compound's inhibitory activity on proliferation of HCT-116 MTAP(−/−) deficient cells. P Materials” for “Materials”, “MTAP(−/−) deficient” for “MTAP wild-type”
Cell Culture: HCT116 MTAP(−/−) deficient cells were cultured in RPMI 1640 medium containing 10% fetal bovine serum and 1% penicillin-streptomycin at 37° C., 5% CO2. Only cells in logarithmic growth phase were used for experiments.
as §2, with “MTAP(−/−) deficient” for “MTAP wild-type”

**Q.** How did the IC50 [1] turn out when `C[C@@H]1OC[C@@H](N(C)C(=O)c2ccc3nc(N)c4cncn4c3c2)c2ccc(C(F)(F)F)cc21` [Example 105, 4-amino-N-methyl-N-((1S,4S)-1-methyl-7-(trifluoromethyl)isoch-roman-4-yl)imidazo [1,5-a]quinoxaline-8-carboxamide] was run?
**A.** Its IC50 is 2190 nM.

**Q.** What about the IC50 [2] of the same molecule?
**A.** Its IC50 is 66.1 nM.

**Q.** For `CN(C(=O)c1ccc2nc(N)c3cncn3c2c1)[C@@H]1COc2cc(Cl)ccc21` [Example 70, (S)-4-amino-N-(6-chloro-2,3-dihydrobenzofuran-3-yl)-N-methylimidazo[1,5-a]quinoxaline-8-carboxamide], which IC50 [1] is on record?
**A.** Its IC50 is 3890 nM.

**Q.** And the IC50 [2]?
**A.** Its IC50 is 54 nM.

**Q.** How did the IC50 [1] turn out when `N#Cc1ccc2c(c1)OC[C@@H]2N(C(=O)c1ccc2nc(N)c3cncn3c2c1)C1CC1` (single isomer, unassigned) [Example 91] was run?
**A.** The IC50 was > 20000 nM.

**Q.** And the IC50 [2]?
**A.** The IC50 was 2180 nM.

**Q.** `Nc1nc2cnc(C(=O)N(C3CC3)[C@H]3COc4cc(C(F)(F)F)ccc43)cc2n2cncc12` (single isomer, unassigned) [Example 87] was tested. Which IC50 [1] did it give?
**A.** The IC50 was 10800 nM.

**Q.** And the IC50 [2]?
**A.** The IC50 was 9030 nM.

**Q.** Which results are given for `CN(C(=O)c1ccc2nc(N)c3cncn3c2c1)[C@H]1COc2nc(C(F)(F)F)ccc21` (single isomer, unassigned) [Example 89]?
**A.** IC50 [1]: > 10000 nM; IC50 [2]: > 3000 nM

**Q.** How did the IC50 [1] turn out when `CN(C(=O)c1cc2c(cc1Cl)nc(N)c1cncn12)[C@@H]1COc2cc(C(F)(F)F)ccc21` [Example 27, (S)-4-amino-7-chloro-N-methyl-N-(6-(trifluoromethyl)-2,3-dihydrobenzofuran-3-yl)imidazo[1,5-a]quinoxaline-8-carboxamide] was run?
**A.** The IC50 was 842 nM.

**Q.** And the IC50 [2]?
**A.** The IC50 was 4.4 nM.

**Q.** How did the IC50 [1] turn out when `CN(C(=O)c1ccc2nc(N)c3cncn3c2c1)[C@@H]1COc2nc(C(F)(F)F)ccc21` (single isomer, unassigned) [Example 90] was run?
**A.** The IC50 was > 10000 nM.

**Q.** What about the IC50 [2] of the same molecule?
**A.** The IC50 was 36.4 nM.

**Q.** Which results are given for `Nc1nc2ccc(C(=O)N(C3CC3)[C@@H]3COc4cc(Br)ccc43)cc2n2cncc12` (single isomer, unassigned) [Example 82]?
**A.** IC50 [1]: 1920 nM; IC50 [2]: 52.9 nM

**Q.** What does the source list for `Nc1nc2cnc(C(=O)N(C3CC3)[C@@H]3COc4cc(C(F)(F)F)ccc43)cc2n2cncc12` (single isomer, unassigned) [Example 88]?
**A.** IC50 [1]: 1850 nM; IC50 [2]: 24.1 nM

**Q.** For `CN(C(=O)c1ccc2nc(N)c3cncn3c2c1)[C@@H]1COCc2ccc(C(F)(F)F)cc21` (single isomer, unassigned) [Example 94], which IC50 [1] is on record?
**A.** Its IC50 is 5170 nM.

**Q.** And the IC50 [2]?
**A.** The IC50 was 80.8 nM.

**Q.** `Nc1nc2ccc(C(=O)N(C3CC3)[C@H]3COc4cc(Br)ccc43)cc2n2cncc12` [Example 81, (R)-4-amino-N-(6-bromo-2,3-dihydrobenzofuran-3-yl)-N-cyclopropylimidazo[1,5-a]quinoxaline-8-carboxamide] was tested. Which IC50 [1] did it give?
**A.** The IC50 was 2360 nM.

**Q.** And the IC50 [2]?
**A.** The IC50 was 1790 nM.

**Q.** How did the IC50 [1] turn out when `Nc1nc2ccc(C(=O)N(C3CC3)[C@H]3COc4cc(C(F)(F)F)ccc43)cc2n2cncc12` (single isomer, unassigned) [Example 83] was run?
**A.** The IC50 was 4700 nM.

**Q.** And the IC50 [2]?
**A.** The IC50 was 2640 nM.

**Q.** Which IC50 [1] does the source give for `N#Cc1ccc2c(c1)OC[C@H]2N(C(=O)c1ccc2nc(N)c3cncn3c2c1)C1CC1` (single isomer, unassigned) [Example 92] here?
**A.** Its IC50 is 4750 nM.

**Q.** And the IC50 [2]?
**A.** The IC50 was 46.6 nM.

**Q.** How did the IC50 [1] turn out when `CN(C(=O)c1ccc2nc(N)c3cncn3c2c1)C1CSc2cc(C(F)(F)F)ccc21` (centres unmarked) [Example 43, 4-amino-N-methyl-N-(6-(trifluoromethyl)-2,3-dihydrobenzo[b]thiophen-3-yl)imidazo [1,5-a]quinoxaline-8-carboxamide] was run?
**A.** The IC50 was 2990 nM.

**Q.** What about the IC50 [2] of the same molecule?
**A.** The IC50 was 22.4 nM.

**Q.** Which IC50 [1] does the source give for `CN(C(=O)c1ccc2nc(N)c3cncn3c2c1)[C@H]1COCc2ccc(C(F)(F)F)cc21` (single isomer, unassigned) [Example 93] here?
**A.** Its IC50 is > 10000 nM.

**Q.** And the IC50 [2]?
**A.** Its IC50 is > 3000 nM.

**Q.** For `CN(C(=O)c1ccc2nc(N)c3cncn3c2c1)C1COCc2ccc(C(F)(F)F)cc21` (centres unmarked) [Example 8, 4-amino-N-methyl-N-(6-(trifluoromethyl)isochroman-4-yl) imidazo[1,5-a] quinoxaline-8-carboxamide], which IC50 [1] is on record?
**A.** Its IC50 is 6480 nM.

**Q.** And the IC50 [2]?
**A.** The IC50 was 106 nM.

From US12173002B2, “PRMT5 inhibitors and methods of use” (SHANGHAI APEIRON THERAPEUTICS COMPANY LIMITED, priority 2022, dated 2024)
